# Measured values reported in PubChem BioAssay (NCI).
#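 How tested: cells in 96-well plates exposed to compound for 48 hours at five concentrations. GI50: concentration for 50% inhibition of growth. TGI marks complete inhibition of growth.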
# Legend:
# Assay in all cases: NCI anticancer screen, dose series, 48 h
# 786-0 renal = tested on: 786-0 renal
# A498 renal = tested on: A498 renal
# A549 NSCLC = tested on: A549 NSCLC
# ACHN renal = tested on: ACHN renal
# BT-549 breast = tested on: BT-549 breast
# CAKI-1 renal = tested on: CAKI-1 renal
# CCRF-CEM leukemia = tested on: CCRF-CEM leukemia
# COLO 205 colon = tested on: COLO 205 colon
# DU-145 prostate = tested on: DU-145 prostate
# EKVX NSCLC = tested on: EKVX NSCLC
# HCC-2998 colon = tested on: HCC-2998 colon
# HCT-116 colon = tested on: HCT-116 colon
# HCT-15 colon = tested on: HCT-15 colon
# HL-60(TB) leukemia = tested on: HL-60(TB) leukemia
# HOP-62 NSCLC = tested on: HOP-62 NSCLC
# HOP-92 NSCLC = tested on: HOP-92 NSCLC
# HS 578T breast = tested on: HS 578T breast
# HT29 colon = tested on: HT29 colon
# IGROV1 ovarian = tested on: IGROV1 ovarian
# K-562 leukemia = tested on: K-562 leukemia
# KM12 colon = tested on: KM12 colon
# LOX IMVI melanoma = tested on: LOX IMVI melanoma
# M14 melanoma = tested on: M14 melanoma
# MALME-3M melanoma = tested on: MALME-3M melanoma
# MCF7 breast = tested on: MCF7 breast
# MDA-MB-231 breast = tested on: MDA-MB-231 breast
# MDA-MB-435 = tested on: MDA-MB-435
# MOLT-4 leukemia = tested on: MOLT-4 leukemia
# NCI-H226 lung = tested on: NCI-H226 lung
# NCI-H460 lung = tested on: NCI-H460 lung
# NCI-H522 lung = tested on: NCI-H522 lung
# NCI/ADR-RES ovarian = tested on: NCI/ADR-RES ovarian
# OVCAR-3 ovarian = tested on: OVCAR-3 ovarian
# OVCAR-4 ovarian = tested on: OVCAR-4 ovarian
# OVCAR-5 ovarian = tested on: OVCAR-5 ovarian
# OVCAR-8 ovarian = tested on: OVCAR-8 ovarian
# PC-3 prostate = tested on: PC-3 prostate
# RPMI-8226 leukemia = tested on: RPMI-8226 leukemia
# RXF 393 renal = tested on: RXF 393 renal
# SF-268 CNS = tested on: SF-268 CNS
# SF-295 CNS = tested on: SF-295 CNS
# SF-539 CNS = tested on: SF-539 CNS
# SK-MEL-2 melanoma = tested on: SK-MEL-2 melanoma
# SK-MEL-28 melanoma = tested on: SK-MEL-28 melanoma
# SK-MEL-5 melanoma = tested on: SK-MEL-5 melanoma
# SK-OV-3 ovarian = tested on: SK-OV-3 ovarian
# SN12C renal = tested on: SN12C renal
# SNB-19 CNS = tested on: SNB-19 CNS
# SNB-75 CNS = tested on: SNB-75 CNS
# SR leukemia = tested on: SR leukemia
# SW-620 colon = tested on: SW-620 colon
# T-47D breast = tested on: T-47D breast
# TK-10 renal = tested on: TK-10 renal
# U251 CNS = tested on: U251 CNS
# UACC-257 melanoma = tested on: UACC-257 melanoma
# UACC-62 melanoma = tested on: UACC-62 melanoma
# UO-31 renal = tested on: UO-31 renal
# NCI-H23 lung = tested on: NCI-H23 lung
smiles,measurement,setting,value
O=C(Nc1ccc(Cl)c(C(F)(F)F)c1)Nc1ccc2c(ccn2C(=O)c2cccc(F)c2)c1,GI50,786-0 renal,2.63 µM
same,TGI,786-0 renal,11.1 µM
same,GI50,A498 renal,2.67 µM
same,TGI,A498 renal,9.86 µM
same,GI50,A549 NSCLC,2.9 µM
same,TGI,A549 NSCLC,22.7 µM
same,GI50,ACHN renal,2.56 µM
same,TGI,ACHN renal,7.47 µM
same,GI50,BT-549 breast,2.61 µM
same,TGI,BT-549 breast,8.98 µM
same,GI50,CAKI-1 renal,2.16 µM
same,TGI,CAKI-1 renal,9.07 µM
same,GI50,CCRF-CEM leukemia,3.78 µM
same,TGI,CCRF-CEM leukemia,> 100 µM
same,GI50,COLO 205 colon,2.25 µM
same,TGI,COLO 205 colon,5.57 µM
same,GI50,DU-145 prostate,3.5 µM
same,TGI,DU-145 prostate,48.8 µM
same,GI50,EKVX NSCLC,2.2 µM
same,TGI,EKVX NSCLC,7.8 µM
same,GI50,HCC-2998 colon,2.49 µM
same,TGI,HCC-2998 colon,9.04 µM
same,GI50,HCT-116 colon,3 µM
same,TGI,HCT-116 colon,10.6 µM
same,GI50,HCT-15 colon,2.37 µM
same,TGI,HCT-15 colon,9.7 µM
same,GI50,HL-60(TB) leukemia,2.33 µM
same,TGI,HL-60(TB) leukemia,7.82 µM
same,GI50,HOP-62 NSCLC,2.45 µM
same,TGI,HOP-62 NSCLC,7.81 µM
same,GI50,HOP-92 NSCLC,2.07 µM
same,TGI,HOP-92 NSCLC,5.77 µM
same,GI50,HS 578T breast,2.8 µM
same,TGI,HS 578T breast,8.55 µM
same,GI50,HT29 colon,3.16 µM
same,TGI,HT29 colon,50.8 µM
same,GI50,IGROV1 ovarian,2.75 µM
same,TGI,IGROV1 ovarian,10.6 µM
same,GI50,K-562 leukemia,3.15 µM
same,TGI,K-562 leukemia,16.4 µM
same,GI50,KM12 colon,2.83 µM
same,TGI,KM12 colon,12 µM
same,GI50,LOX IMVI melanoma,1.43 µM
same,TGI,LOX IMVI melanoma,3.28 µM
same,GI50,M14 melanoma,3.22 µM
same,TGI,M14 melanoma,16.8 µM
same,GI50,MALME-3M melanoma,1.92 µM
same,TGI,MALME-3M melanoma,5.87 µM
same,GI50,MCF7 breast,2.12 µM
same,TGI,MCF7 breast,7.66 µM
same,GI50,MDA-MB-231 breast,2.91 µM
same,TGI,MDA-MB-231 breast,11 µM
same,GI50,MDA-MB-435,2.84 µM
same,TGI,MDA-MB-435,14.1 µM
same,GI50,MOLT-4 leukemia,3.4 µM
same,TGI,MOLT-4 leukemia,> 100 µM
same,GI50,NCI-H226 lung,2.46 µM
same,TGI,NCI-H226 lung,7.5 µM
same,GI50,NCI-H460 lung,2.8 µM
same,TGI,NCI-H460 lung,10 µM
same,GI50,NCI-H522 lung,2.42 µM
same,TGI,NCI-H522 lung,7.67 µM
same,GI50,NCI/ADR-RES ovarian,2.5 µM
same,TGI,NCI/ADR-RES ovarian,7.25 µM
same,GI50,OVCAR-3 ovarian,2.16 µM
same,TGI,OVCAR-3 ovarian,6.2 µM
same,GI50,OVCAR-4 ovarian,2.98 µM
same,TGI,OVCAR-4 ovarian,> 100 µM
same,GI50,OVCAR-5 ovarian,4.86 µM
same,TGI,OVCAR-5 ovarian,38.9 µM
same,GI50,OVCAR-8 ovarian,3.15 µM
same,TGI,OVCAR-8 ovarian,17.9 µM
same,GI50,PC-3 prostate,2.92 µM
same,TGI,PC-3 prostate,33.5 µM
same,GI50,RPMI-8226 leukemia,2.78 µM
same,TGI,RPMI-8226 leukemia,10.9 µM
same,GI50,RXF 393 renal,1.74 µM
same,TGI,RXF 393 renal,4.08 µM
same,GI50,SF-268 CNS,3.43 µM
same,TGI,SF-268 CNS,> 100 µM
same,GI50,SF-295 CNS,1.93 µM
same,TGI,SF-295 CNS,4.76 µM
same,GI50,SF-539 CNS,2.71 µM
same,TGI,SF-539 CNS,8.26 µM
same,GI50,SK-MEL-2 melanoma,2.36 µM
same,TGI,SK-MEL-2 melanoma,6.89 µM
same,GI50,SK-MEL-28 melanoma,3.37 µM
same,TGI,SK-MEL-28 melanoma,19.6 µM
same,GI50,SK-MEL-5 melanoma,2.4 µM
same,TGI,SK-MEL-5 melanoma,6.64 µM
same,GI50,SK-OV-3 ovarian,2.79 µM
same,TGI,SK-OV-3 ovarian,8.99 µM
same,GI50,SN12C renal,3.1 µM
same,TGI,SN12C renal,15.8 µM
same,GI50,SNB-19 CNS,3.18 µM
same,TGI,SNB-19 CNS,14.1 µM
same,GI50,SNB-75 CNS,1.9 µM
same,TGI,SNB-75 CNS,9.11 µM
same,GI50,SR leukemia,2.13 µM
same,TGI,SR leukemia,9.12 µM
same,GI50,SW-620 colon,3.5 µM
same,TGI,SW-620 colon,35.8 µM
same,GI50,T-47D breast,2.53 µM
same,TGI,T-47D breast,9.11 µM
same,GI50,TK-10 renal,2.91 µM
same,TGI,TK-10 renal,36.5 µM
same,GI50,U251 CNS,3.01 µM
same,TGI,U251 CNS,11.4 µM
same,GI50,UACC-257 melanoma,2.44 µM
same,TGI,UACC-257 melanoma,7.74 µM
same,GI50,UACC-62 melanoma,2.53 µM
same,TGI,UACC-62 melanoma,15.3 µM
same,GI50,UO-31 renal,1.7 µM
same,TGI,UO-31 renal,4.42 µM
CCOP(=O)(OCC)OC[C@]12CCC(C)(C)C[C@H]1C1=CC[C@@H]3[C@@]4(C)C/C(=C\c5cccnc5)[C@H](OP(=O)(OCC)OCC)C(C)(C)[C@@H]4CC[C@@]3(C)[C@]1(C)CC2,GI50,786-0 renal,1.86 µM
same,TGI,786-0 renal,3.89 µM
same,GI50,A498 renal,1.64 µM
same,TGI,A498 renal,4.44 µM
same,GI50,A549 NSCLC,2 µM
same,TGI,A549 NSCLC,5.59 µM
same,GI50,ACHN renal,2.3 µM
same,TGI,ACHN renal,7.14 µM
same,GI50,CAKI-1 renal,1.09 µM
same,TGI,CAKI-1 renal,2.65 µM
same,GI50,CCRF-CEM leukemia,1.77 µM
same,TGI,CCRF-CEM leukemia,4 µM
same,GI50,COLO 205 colon,1.57 µM
same,TGI,COLO 205 colon,3.32 µM
same,GI50,DU-145 prostate,1.75 µM
same,TGI,DU-145 prostate,3.3 µM
same,GI50,HCC-2998 colon,1.59 µM
same,TGI,HCC-2998 colon,3.03 µM
same,GI50,HCT-116 colon,1.25 µM
same,TGI,HCT-116 colon,2.58 µM
same,GI50,HCT-15 colon,1.56 µM
same,TGI,HCT-15 colon,3.43 µM
same,GI50,HL-60(TB) leukemia,0.581 µM
same,TGI,HL-60(TB) leukemia,2.3 µM
same,GI50,HOP-92 NSCLC,1.22 µM
same,TGI,HOP-92 NSCLC,2.9 µM
same,GI50,HS 578T breast,2.06 µM
same,TGI,HS 578T breast,5.38 µM
same,GI50,HT29 colon,1.52 µM
same,TGI,HT29 colon,3.16 µM
same,GI50,IGROV1 ovarian,2.21 µM
same,TGI,IGROV1 ovarian,5.61 µM
same,GI50,K-562 leukemia,1.18 µM
same,TGI,K-562 leukemia,3.53 µM
same,GI50,M14 melanoma,1.8 µM
same,TGI,M14 melanoma,3.7 µM
same,GI50,MCF7 breast,1.37 µM
same,TGI,MCF7 breast,3.04 µM
same,GI50,MDA-MB-435,1.6 µM
same,TGI,MDA-MB-435,3.23 µM
same,GI50,MOLT-4 leukemia,0.715 µM
same,TGI,MOLT-4 leukemia,2.42 µM
same,GI50,NCI-H226 lung,1.44 µM
same,TGI,NCI-H226 lung,3.13 µM
same,GI50,NCI-H23 lung,1.61 µM
same,TGI,NCI-H23 lung,3.29 µM
same,GI50,NCI-H460 lung,1.78 µM
same,TGI,NCI-H460 lung,3.55 µM
same,GI50,NCI/ADR-RES ovarian,2.25 µM
same,TGI,NCI/ADR-RES ovarian,6.05 µM
same,GI50,OVCAR-3 ovarian,1.68 µM
same,TGI,OVCAR-3 ovarian,3.39 µM
same,GI50,OVCAR-4 ovarian,1.7 µM
same,TGI,OVCAR-4 ovarian,4.37 µM
same,GI50,OVCAR-5 ovarian,1.79 µM
same,TGI,OVCAR-5 ovarian,3.34 µM
same,GI50,OVCAR-8 ovarian,2.29 µM
same,TGI,OVCAR-8 ovarian,6.52 µM
same,GI50,PC-3 prostate,0.727 µM
same,TGI,PC-3 prostate,2.77 µM
same,GI50,RPMI-8226 leukemia,0.939 µM
same,TGI,RPMI-8226 leukemia,3.33 µM
same,GI50,RXF 393 renal,1.19 µM
same,TGI,RXF 393 renal,2.49 µM
same,GI50,SF-539 CNS,1.73 µM
same,TGI,SF-539 CNS,3.2 µM
same,GI50,SK-MEL-28 melanoma,1.71 µM
same,TGI,SK-MEL-28 melanoma,3.27 µM
same,GI50,SK-MEL-5 melanoma,1.42 µM
same,TGI,SK-MEL-5 melanoma,2.73 µM
same,GI50,SK-OV-3 ovarian,2.1 µM
same,TGI,SK-OV-3 ovarian,5.28 µM
same,GI50,SNB-19 CNS,1.66 µM
same,TGI,SNB-19 CNS,3.14 µM
same,GI50,SNB-75 CNS,1.6 µM
same,TGI,SNB-75 CNS,3.91 µM
same,GI50,SR leukemia,1.02 µM
same,TGI,SR leukemia,2.78 µM
same,GI50,SW-620 colon,1.79 µM
same,TGI,SW-620 colon,3.61 µM
same,GI50,T-47D breast,1.58 µM
same,TGI,T-47D breast,8.35 µM
same,GI50,TK-10 renal,2.68 µM
same,TGI,TK-10 renal,6.32 µM
same,GI50,U251 CNS,1.61 µM
same,TGI,U251 CNS,3.2 µM
same,GI50,UACC-257 melanoma,1.64 µM
same,TGI,UACC-257 melanoma,4.06 µM
same,GI50,UACC-62 melanoma,1.28 µM
same,TGI,UACC-62 melanoma,2.88 µM
same,GI50,UO-31 renal,1.92 µM
same,TGI,UO-31 renal,6.04 µM
